Key:
[1] = system: G. lamblia trophozoites (luciferase expressing, WBC6); experiment: microbe, parasite or virus in culture; type: cell-based, Giardia lamblia; settings: for Giardia (16 uM) Mean % inhibition: initial Pathogen Box screen, single concentration 16 µM, inhibition compared to DMSO wells
Method in brief: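 Luciferase-expressing WBC6 trophozoites plated at 250,000 cells/mL, compounds added 1:1, incubated anaerobically (GasPak bags) at 37 °C for 24 h; viability read by bioluminescence, with duplicate plates counted on a MOXI Z cell counter. Metronidazole control serially diluted 1:2 from 40 μM.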

[2] = system: C. parvum (UGA1 Nluc expressing strain in HCT-8 cells); experiment: microbe, parasite or virus in culture; type: cell-based, Cryptosporidium parvum; settings: for Crypto (10 uM) Mean % inhibition: initial Pathogen Box screen, single concentration 10 µM, inhibition compared to DMSO wells; for C. parvum cell growth inhibition in the initial screen: 10 μM; for C. parvum cell growth inhibition in the initial screen / EC50: 48 hours; for EC50: Nluc C. parvum in HCT-8 cells, read-out: C. parvum EC50
Method in brief: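 HCT-8 monolayers grown 48 h to 90–100% confluence, treated with compound at 10 μM or serial dilutions, then infected with bleach-treated UGA1 Nluc C. parvum oocysts.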

## c1ccc(Oc2ccc(-c3cc(N4CCOCC4)n[nH]3)cc2)cc1 [MMV045105]
[1]
  Giardia (16 uM) Mean % inhibition: 16%
[2]
  Crypto (10 uM) Mean % inhibition: 19%

## COc1cc(C(F)(F)F)nc2ccc(C)c(N)c12 [MMV047015]
[1]
  Giardia (16 uM) Mean % inhibition: 65%
[2]
  Crypto (10 uM) Mean % inhibition: 1.83%

## N#Cc1ccc(-c2ccc(OCC(N)=O)cc2)cc1 [MMV053220]
[1]
  Giardia (16 uM) Mean % inhibition: 74%
[2]
  Crypto (10 uM) Mean % inhibition: 52%

## CC(=O)N1CCc2cc3nc(C)cc(C)c3cc21 [MMV054312]
[1]
  Giardia (16 uM) Mean % inhibition: 45%
[2]
  Crypto (10 uM) Mean % inhibition: 59%

## Cc1cc(C)nc(-n2nc(C)cc2Nc2ccccc2)n1 [MMV062221]
[1]
  Giardia (16 uM) Mean % inhibition: 35%
[2]
  Crypto (10 uM) Mean % inhibition: 50%

## Cc1nn(Cc2ccccc2)c(Cl)c1C(=O)NC1CCCCCC1 [MMV063404]
[1]
  Giardia (16 uM) Mean % inhibition: 55%
[2]
  Crypto (10 uM) Mean % inhibition: 75%

## FC(F)(F)c1nnc2ccc(Cl)nn12 [MMV069458]
[1]
  Giardia (16 uM) Mean % inhibition: X* (Mean or standard deviation are negative but not significantly different from the control to be a growth promoter)
[2]
  Crypto (10 uM) Mean % inhibition: 65%

## O=C1N(Cc2cc3ccccc3s2)CC2CN(Cc3ccccc3)CCN12 (stereo not shown) [MMV084603]
[1]
  Giardia (16 uM) Mean % inhibition: 62%
[2]
  Crypto (10 uM) Mean % inhibition: 43%

## O=C(Nc1cnc2ccccc2c1)c1cccc(-n2cnnn2)c1 [MMV084864]
[1]
  Giardia (16 uM) Mean % inhibition: 63%
[2]
  Crypto (10 uM) Mean % inhibition: 34%

## COc1cncc(-c2cncc(N3CCN(c4ccncc4)CC3)n2)c1 [MMV085071]
[1]
  Giardia (16 uM) Mean % inhibition: 19%
[2]
  Crypto (10 uM) Mean % inhibition: 47%

## O=C(C(Cc1c[nH]c2ccccc12)NS(=O)(=O)c1ccc(Cl)cc1)N1CCCCC1 (stereo not shown) [MMV085210]
[1]
  Giardia (16 uM) Mean % inhibition: X* (Mean or standard deviation are negative but not significantly different from the control to be a growth promoter)
[2]
  Crypto (10 uM) Mean % inhibition: X* (Mean or standard deviation are negative but not significantly different from the control to be a growth promoter)

## CCCNC(=O)N1CCC2(CC1)CC(=O)c1cc(C)ccc1O2 [MMV085230]
[1]
  Giardia (16 uM) Mean % inhibition: 63%
[2]
  Crypto (10 uM) Mean % inhibition: 62%

## N#Cc1ccc(-c2cnc(N)c(-c3ccc(C(N)=O)cc3)n2)cc1 [MMV085499]
[1]
  Giardia (16 uM) Mean % inhibition: 61%
[2]
  C. parvum cell growth inhibition in the initial screen: ≥ 95%
  EC50: 1.93 µM
  Crypto (10 uM) Mean % inhibition: 95%

## CCOC(=O)NC(=O)c1ccsc1NC(=O)c1nc2ccccc2s1 [MMV090930]
[1]
  Giardia (16 uM) Mean % inhibition: 18%
[2]
  Crypto (10 uM) Mean % inhibition: 59%

## O=C(Nc1nnc(-c2ccc(Cl)cc2)o1)c1cccc(C(F)(F)F)c1 [MMV102872]
[1]
  Giardia (16 uM) Mean % inhibition: 35%
[2]
  C. parvum cell growth inhibition in the initial screen: ≥ 95%
  EC50: 0.14 µM
  Crypto (10 uM) Mean % inhibition: 95%

## CCC(C)NC(=O)c1ccc(NC(=O)C2(c3ccccc3)CCCC2)cc1 (stereo not shown) [MMV146306]
[1]
  Giardia (16 uM) Mean % inhibition: X* (Mean or standard deviation are negative but not significantly different from the control to be a growth promoter)
[2]
  Crypto (10 uM) Mean % inhibition: 37%

## CCOC(=O)c1c(NC(=O)c2c(F)c(F)c(F)c(F)c2F)sc(C(N)=O)c1C [MMV153413]
[1]; 16 μM, 24 hours
  G. lamblia inhibition of parasite growth in the initial screen: ≥ 95%
[1]
  Giardia (16 uM) Mean % inhibition: 97%
[1]; luciferase expressing G. lamblia trophozoites, 24 hours, D-luciferin bioluminescence read-out
  G. lamblia EC50: not potent
[2]
  Crypto (10 uM) Mean % inhibition: X* (Mean or standard deviation are negative but not significantly different from the control to be a growth promoter)

## Cc1cc(Cl)ccc1NC(=O)CCc1ccc(S(=O)(=O)NCC(C)C)cc1 [MMV161996]
[1]
  Giardia (16 uM) Mean % inhibition: X* (Mean or standard deviation are negative but not significantly different from the control to be a growth promoter)
[2]
  Crypto (10 uM) Mean % inhibition: 41%

## CNC(=O)C1Cc2ccccc2N1C(=O)Cc1ccc(F)cc1 (stereo not shown) [MMV188296]
[1]
  Giardia (16 uM) Mean % inhibition: 33%
[2]
  Crypto (10 uM) Mean % inhibition: 54%

## COc1ccc(C2(C(=O)Nc3ccc(Br)cc3)CCCC2)cc1 [MMV200748]
[1]
  Giardia (16 uM) Mean % inhibition: 29%
[2]
  Crypto (10 uM) Mean % inhibition: X* (Mean or standard deviation are negative but not significantly different from the control to be a growth promoter)

## COc1ccc(OC(C)C(=O)Nc2ccc(Cl)cc2C)cc1 (stereo not shown) [MMV202458]
[1]
  Giardia (16 uM) Mean % inhibition: 11%
[2]
  Crypto (10 uM) Mean % inhibition: X* (Mean or standard deviation are negative but not significantly different from the control to be a growth promoter)

## CCC(=O)Nc1ccccc1C(=O)Nc1ccccn1 [MMV202553]
[1]
  Giardia (16 uM) Mean % inhibition: 35%
[2]
  Crypto (10 uM) Mean % inhibition: 20%

## COc1cccc(NC(=O)c2c(NC(=O)c3cccnc3)sc3c2CCC3)c1 [MMV228911]
[1]
  Giardia (16 uM) Mean % inhibition: 37%
[2]
  Crypto (10 uM) Mean % inhibition: 39%

## COc1cccc(-n2nnnc2S(C)(=O)=O)c1 [MMV272144]
[1]
  Giardia (16 uM) Mean % inhibition: X* (Mean or standard deviation are negative but not significantly different from the control to be a growth promoter)
[2]
  Crypto (10 uM) Mean % inhibition: X* (Mean or standard deviation are negative but not significantly different from the control to be a growth promoter)

## COc1cccc(-c2cc3c(Nc4cccnc4)nccc3[nH]2)c1 [MMV392832]
[1]
  Giardia (16 uM) Mean % inhibition: 50%
[2]
  Crypto (10 uM) Mean % inhibition: 68%

## CN1CCN(c2nccc3[nH]c(-c4cccc(F)c4)cc23)CC1 [MMV393144]
[1]
  Giardia (16 uM) Mean % inhibition: 77%
[2]
  Crypto (10 uM) Mean % inhibition: 50%

## Cc1cc(=O)[nH]c(-n2nc(C)cc2C)n1 [MMV393995]
[1]
  Giardia (16 uM) Mean % inhibition: X* (Mean or standard deviation are negative but not significantly different from the control to be a growth promoter)
[2]
  Crypto (10 uM) Mean % inhibition: 86%

## CCc1nc2ccc(C(=O)NCc3ccc4c(c3)OCO4)cn2c1N(C)Cc1cccs1 [MMV407539]
[1]
  Giardia (16 uM) Mean % inhibition: 17%
[2]
  Crypto (10 uM) Mean % inhibition: 59%

## CCOc1ccccc1NC(C)C(=O)Nc1cc(C(F)(F)F)ccc1N1CCOCC1 (stereo not shown) [MMV407834]
[1]
  Giardia (16 uM) Mean % inhibition: 33%
[2]
  Crypto (10 uM) Mean % inhibition: X* (Mean or standard deviation are negative but not significantly different from the control to be a growth promoter)

## COC(=O)c1c(NC(=O)c2c(F)c(F)c(F)c(F)c2F)sc2c1CCCCC2 [MMV461553]
[1]
  Giardia (16 uM) Mean % inhibition: 33%
[2]
  Crypto (10 uM) Mean % inhibition: 49%

## CS(=O)(=O)Cc1nc2ccccc2oc1=O [MMV553002]
[1]
  Giardia (16 uM) Mean % inhibition: 12%
[2]
  Crypto (10 uM) Mean % inhibition: 74%

## c1ccc(-c2cc(N3CCCCC3)c3ccccc3n2)nc1 [MMV560185]
[1]
  Giardia (16 uM) Mean % inhibition: X* (Mean or standard deviation are negative but not significantly different from the control to be a growth promoter)
[2]
  Crypto (10 uM) Mean % inhibition: 47%
